In DBAASP:
Values after ≈ are worked out from the molar mass of the structure shown.

Experiments:
Test in all cases: ≥ marks a high value that may be exact or a test limit, other limits are often not marked, values filed in µg/mL are converted to µM
[1] = test system: Escherichia coli ATCC 25726
[2] = test system: Staphylococcus aureus ATCC 25923
Micrococcus luteus = test system: Micrococcus luteus
[3] = test system: Bacillus subtilis ATCC 23857
[4] = test system: Escherichia coli ATCC 25922
[5] = test system: Staphylococcus epidermidis ATCC 12228
[6] = test system: Staphylococcus aureus ATCC 29213
Bacillus subtilis 168 = test system: Bacillus subtilis 168
Staphylococcus aureus = test system: Staphylococcus aureus
[7] = test system: Klebsiella pneumoniae ATCC 700603
[8] = test system: Acinetobacter baumannii ATCC 19606
[9] = test system: Enterococcus faecalis ATCC 29212
[10] = test system: Pseudomonas aeruginosa ATCC 27853
[11] = test system: Pseudomonas aeruginosa ATCC 9027
[12] = test system: Pseudomonas aeruginosa CMCCB 10104
[13] = test system: Candida albicans ATCC 2002

Row | SMILES | MIC [2] [µM] | MIC [3] [µM] | MIC [4] [µM] | also measured
1 | CC[C@H](C)[C@H](NC(=O)CNC(=O)[C@@H](NC(=O)[C@H](CCSC)NC(=O)[C@H](C)NC(=O)[C@H](CC(N)=O)NC(=O)[C@H](CCCCN)NC(=O)[C@H](Cc1ccccc1)NC(=O)[C@H](CO)NC(=O)[C@H](CC(=O)O)NC(=O)[C@H](CC(C)C)NC(=O)[C@H](CC(C)C)NC(=O)CN)[C@@H](C)CC)C(=O)N[C@@H](C)C(=O)N[C@@H](CCCCN)C(=O)N[C@@H](CO)C(=O)N[C@@H](C)C(=O)NCC(=O)N[C@@H](CCCCN)C(=O)N[C@H](C(=O)N[C@@H](C)C(=O)N[C@@H](CC(C)C)C(=O)N[C@@H](CC(N)=O)C(=O)N[C@@H](CCCCN)C(=O)N[C@H](C(=O)N[C@@H](C)C(=O)N[C@H]1CSSC[C@@H](C(=O)O)NC(=O)[C@H]([C@@H](C)O)NC(=O)[C@H](CCCCN)NC(=O)[C@H](CC(=O)O)NC(=O)[C@H]([C@@H](C)CC)NC(=O)[C@H](CCCCN)NC1=O)[C@@H](C)CC)[C@@H](C)O [GLLDSFKNAMIGIAKSAGKTALNKIACKIDKTC] | > 73 | – | – | MIC [1]: 18.2 µM (≈ 62.5 µg/mL)
2 | CC[C@H](C)[C@H](NC(=O)CNC(=O)[C@H](CO)NC(=O)[C@@H](NC(=O)[C@H](CC(C)C)NC(=O)[C@H](CCC(=O)O)NC(=O)[C@H](CO)NC(=O)[C@H](C)NC(=O)[C@H](CCCCN)NC(=O)[C@H](CC(=O)O)NC(=O)[C@H](CCCCN)NC(=O)[C@@H](NC(=O)[C@H](CCCCN)NC(=O)[C@H](CCC(N)=O)NC(=O)[C@H](Cc1c[nH]c2ccccc12)NC(=O)[C@H](CC(C)C)NC(=O)CN)[C@@H](C)CC)C(C)C)C(=O)N[C@H](C(=O)N[C@@H](CCC(=O)O)C(=O)NCC(=O)N[C@H](C(=O)N[C@@H](CCCCN)C(N)=O)C(C)C)C(C)C [GLWQKIKDKASELVSGIVEGVK] | – | – | – | MIC (Micrococcus luteus): 0.168 µM (≈ 0.4 µg/mL)
3 | CC[C@H](C)[C@H](N)C(=O)N[C@H](C(=O)N[C@H](C(=O)N1CCC[C@H]1C(=O)N1CCC[C@H]1C(=O)N[C@H](C(=O)N[C@H](C(=O)N[C@@H](CCCCN)C(=O)N[C@@H](CC(=O)O)C(=O)N[C@H](C(=O)N[C@@H](CC(C)C)C(=O)N[C@@H](CCCCN)C(=O)N[C@@H](CCCCN)C(=O)N[C@@H](Cc1ccccc1)C(=O)N[C@@H](Cc1ccccc1)C(=O)N[C@@H](CCCCN)C(=O)NCC(=O)NCC(=O)N[C@H](C(=O)N[C@@H](C)C(=O)NCC(=O)N[C@H](C(=O)N[C@@H](CCSC)C(=O)NCC(=O)N[C@@H](CCCCN)C(=O)N[C@@H](CO)C(=O)N[C@@H](CCC(N)=O)C(=O)O)C(C)C)[C@@H](C)CC)[C@@H](C)O)C(C)C)[C@@H](C)CC)[C@@H](C)CC)[C@@H](C)O [ITIPPIVKDTLKKFFKGGIAGVMGKSQ] | 40 (≈ 115 µg/mL) | – | – | MIC [1]: ≥ 80 µM
4 | CC[C@H](C)[C@H](NC(=O)CN)C(=O)N[C@H](C(=O)N[C@@H](C)C(=O)N[C@@H](C)C(=O)N[C@H](C(=O)N[C@H](C(=O)N[C@H](C(=O)N[C@@H](CCCCN)C(=O)N[C@H](C(=O)N[C@@H](CCCCN)C(=O)N[C@@H](CCCCN)C(N)=O)[C@@H](C)CC)[C@@H](C)CC)[C@@H](C)CC)[C@@H](C)CC)[C@@H](C)CC [GIIAAIIIKIKK] | – | 16 (≈ 20.5 µg/mL) | > 128 | –
5 | CC[C@H](C)[C@H](N)C(=O)N[C@@H](CC(=O)O)C(=O)N[C@@H](Cc1c[nH]c2ccccc12)C(=O)N[C@@H](CCCCN)C(=O)N[C@@H](CCCCN)C(=O)N[C@@H](CC(C)C)C(=O)N1CCC[C@H]1C(=O)N[C@@H](CC(=O)O)C(=O)N[C@@H](C)C(=O)N[C@@H](C)C(=O)N[C@@H](CCCCN)C(=O)N[C@@H](CCC(N)=O)C(=O)N[C@H](C(=O)N[C@@H](CC(C)C)C(N)=O)[C@@H](C)CC [IDWKKLPDAAKQIL] | – | ≥ 512 | 1020 (≈ 1680 µg/mL) | MIC [5]: > 1020 µM; MIC [6]: > 1020 µM
6 | CC[C@H](C)[C@H](N)C(=O)N[C@@H](CC(=O)O)C(=O)N[C@@H](Cc1c[nH]c2ccccc12)C(=O)N[C@@H](CCCCN)C(=O)N[C@@H](CCCCN)C(=O)N[C@@H](CC(C)C)C(=O)N[C@@H](CC(C)C)C(=O)N1CCC[C@H]1C(=O)N[C@@H](C)C(=O)N[C@@H](C)C(=O)N[C@@H](CCCCN)C(=O)N[C@@H](CCC(N)=O)C(=O)N[C@H](C(=O)N[C@@H](CC(C)C)C(N)=O)[C@@H](C)CC [IDWKKLLPAAKQIL] | – | ≥ 32 | 128 (≈ 209 µg/mL) | MIC [5]: 256 µM (≈ 419 µg/mL); MIC [6]: 512 µM (≈ 838 µg/mL)
7 | CC(C)C[C@H](NC(=O)[C@H](CCC(=O)O)NC(=O)[C@@H]1CCCN1C(=O)[C@H](CCC(=O)O)NC(=O)[C@@H](NC(=O)[C@H](C)NC(=O)[C@H](C)NC(=O)[C@@H](N)CC(=O)O)C(C)C)C(=O)N[C@@H](Cc1ccc(O)cc1)C(=O)N[C@@H](Cc1cnc[nH]1)C(=O)N[C@@H](Cc1c[nH]c2ccccc12)C(=O)NCC(=O)N[C@@H](CCCCN)C(=O)N[C@H](C(=O)N[C@@H](Cc1c[nH]c2ccccc12)C(=O)N[C@@H](CC(C)C)C(=O)N1CCC[C@H]1C(=O)N[C@@H](CC(N)=O)C(=O)O)C(C)C [DAAVEPELYHWGKVWLPN] | > 94.1 | – | > 94.1 | MIC [12]: ≥ 94.1 µM; MIC [13]: ≥ 94.1 µM

Further compounds by falling MIC [4], results first:

Row | MIC [2] [µM] | MIC [3] [µM] | MIC [4] [µM] | SMILES | also measured
8 | 128 (≈ 152 µg/mL) | ≥ 32 | 64 (≈ 76 µg/mL) | CC(C)C[C@H](NC(=O)[C@H](CC(C)C)NC(=O)[C@@H](NC(=O)[C@H](CCCCN)NC(=O)[C@H](Cc1ccccc1)NC(=O)[C@H](CCCN=C(N)N)NC(=O)[C@H](CCCCN)NC(=O)[C@H](CC(C)C)NC(=O)[C@H](CC(C)C)NC(=O)CN)[C@@H](C)O)C(N)=O [GLLKRFKTLL] | MIC [7]: 128 µM (≈ 152 µg/mL); MIC [8]: 256 µM (≈ 304 µg/mL); MIC [9]: 256 µM (≈ 304 µg/mL); MIC [5]: 16 µM (≈ 19 µg/mL); MIC [10]: 16 µM (≈ 19 µg/mL)
9 | – | ≥ 32 | 32 (≈ 39.2 µg/mL) | CC[C@H](C)[C@H](NC(=O)CN)C(=O)N[C@@H](C)C(=O)N[C@@H](C)C(=O)NCC(=O)N[C@H](C(=O)N[C@H](C(=O)N[C@H](C(=O)N[C@@H](CCCCN)C(=O)N[C@H](C(=O)N[C@@H](CCCCN)C(=O)N[C@@H](CCCCN)C(N)=O)[C@@H](C)CC)[C@@H](C)CC)[C@@H](C)CC)[C@@H](C)CC [GIAAGIIIKIKK] | –
10 | – | – | 31.8 (≈ 62.5 µg/mL) | CSCC[C@H](NC(=O)[C@H](C)NC(=O)[C@H](CCCCN)NC(=O)[C@H](CCCN=C(N)N)NC(=O)[C@H](C)NC(=O)[C@H](CCCN=C(N)N)NC(=O)[C@H](CCC(=O)O)NC(=O)[C@@H](NC(=O)[C@H](CCCCN)NC(=O)CNC(=O)CNC(=O)CNC(=O)[C@H](Cc1ccccc1)NC(=O)[C@H](CCCCN)NC(=O)[C@@H](N)CCCCN)[C@@H](C)O)C(=O)N[C@@H](C)C(=O)N[C@H](C(=O)N[C@@H](CCC(=O)O)C(=O)O)C(C)C [KKFGGGKTERARKAMAVE] | MIC (Bacillus subtilis 168): 7.94 µM (≈ 15.6 µg/mL); MIC (Staphylococcus aureus): 7.94 µM (≈ 15.6 µg/mL); MIC (Micrococcus luteus): 31.8 µM (≈ 62.5 µg/mL)
11 | 4 (≈ 5.8 µg/mL) | 8 (≈ 11.6 µg/mL) | 8 (≈ 11.6 µg/mL) | CC[C@H](C)[C@H](NC(=O)[C@H](C)NC(=O)[C@H](CCCCN)NC(=O)[C@H](C)NC(=O)[C@@H](NC(=O)[C@H](C)NC(=O)[C@H](CC(C)C)NC(=O)[C@H](CC(C)C)NC(=O)[C@H](C)NC(=O)[C@H](CCCCN)NC(=O)[C@H](CC(C)C)NC(=O)[C@H](CC(N)=O)NC(=O)[C@@H](N)CC(C)C)C(C)C)C(=O)N[C@@H](CC(C)C)C(N)=O [LNLKALLAVAKAIL] | MIC [7]: 16 µM (≈ 23.2 µg/mL); MIC [11]: 16 µM (≈ 23.2 µg/mL)
12 | 2.92 (≈ 6.29 µg/mL) | – | 2.92 (≈ 6.29 µg/mL) | CC[C@H](C)[C@H](NC(=O)CN)C(=O)N[C@@H](Cc1ccccc1)C(=O)NCC(=O)N[C@@H](CCCCN)C(=O)N[C@H](C(=O)N[C@@H](CC(C)C)C(=O)NCC(=O)N[C@H](C(=O)NCC(=O)N[C@@H](CCCCN)C(=O)N[C@@H](CCCCN)C(=O)N[C@H](C(=O)N[C@@H](CC(C)C)C(=O)N[C@H]1CSSC[C@@H](C(=O)O)NC(=O)[C@H](CCSC)NC(=O)CNC(=O)[C@H](CO)NC(=O)[C@H](CC(C)C)NC(=O)[C@H](CCC(=O)O)NC1=O)[C@@H](C)O)C(C)C)[C@@H](C)CC [GIFGKILGVGKKTLCELSGMC] | MIC [12]: 2.92 µM (≈ 6.29 µg/mL); MIC [13]: 1.49 µM (≈ 3.2 µg/mL)
13 | 2.83 (≈ 9.39 µg/mL) | – | 1.41 (≈ 4.7 µg/mL) | CC[C@H](C)[C@H](NC(=O)[C@H](CC(C)C)NC(=O)[C@H](CC(C)C)NC(=O)[C@H](CC(=O)O)NC(=O)[C@H](CCCCN)NC(=O)[C@@H](NC(=O)[C@@H](NC(=O)CNC(=O)[C@H](CCSC)NC(=O)[C@@H](NC(=O)[C@@H](N)CO)C(C)C)[C@@H](C)O)C(C)C)C(=O)NCC(=O)N[C@@H](C)C(=O)NCC(=O)N[C@@H](CCCCN)C(=O)N[C@@H](CO)C(=O)N[C@@H](C)C(=O)N[C@@H](C)C(=O)N[C@@H](CCC(N)=O)C(=O)N[C@@H](CO)C(=O)N[C@H](C(=O)N[C@@H](CC(C)C)C(=O)N[C@@H](CCCCN)C(=O)N[C@@H](CO)C(=O)N[C@@H](CC(C)C)C(=O)N[C@@H](CO)C(=O)N[C@H]1CSSC[C@@H](C(=O)O)NC(=O)[C@H](CC(=O)O)NC(=O)[C@H](CC(N)=O)NC(=O)[C@H](CO)NC(=O)[C@H]([C@@H](C)CC)NC(=O)[C@H](CCCCN)NC1=O)C(C)C [SVMGTVKDLLIGAGKSAAQSVLKSLSCKISNDC] | MIC [12]: 1.41 µM (≈ 4.7 µg/mL); MIC [13]: 1.41 µM (≈ 4.7 µg/mL)
